# Results taken from patent publication US8563578B2, “Antitumor properties of NO modified protease inhibitors” (Onconox APS, priority 2008, dated 2013).
# Assays:
# B16 cells = test: MBP expression by cell-based ELISA, B16; parameters: species or system mouse; details: 18.8 μM, 24 h
# Source text: A slightly modified method for cell-based ELISA (cELISA) by Versteeg (Versteed et al., 2000) was used to measure the expression of galactocerebroside, glial fibrilar acidic protein (GFAP), myelin basic protein (MBP), cyclin D3, p53 and p-AKT. Briefly, at the end of cultivation period cells were fixed in 4% paraformaldehyde, endogenous peroxydase was quenched with 1% H2O2 in PBS containing 0.1% Triton X-100 (PBST), and unspecific binding of antibodies blocked with PBST solution containing 10% FCS. […] The absorbance at 450 nm was measured in an automated microplate reader 15 min after incubation with peroxydase substrate TMB and subsequently to addition of 0.1 M HCl. To facilitate comparison between treatments, the obtained absorbances were corrected for the cell number that was determined by crystal violet staining, as described in the original protocol. […]
# FIG. 5. […] Cell morphology was assessed by light microscopy (A). Markers of cell differentiation of C6 and B16 cells, galactocerebroside, GFAP and MBP were determined by cELISA and melanin and tyrosinase activity were determined as described in material and methods (B). Cyclin D3 and p53 expression were evaluated by cELISA (C, upper panels), immunocytochemistry (C, middle panel) and Western blot (C, lower panel). […]
# C6 cells [1] = test: Cyclin D3 and p53 expression (cELISA, immunocytochemistry, Western blot), C6; assay type: cell-based, rat; details: 18.8 μM, 24 h (Western blot 4 h)
# Source text: A slightly modified method for cell-based ELISA (cELISA) by Versteeg (Versteed et al., 2000) was used to measure the expression of galactocerebroside, glial fibrilar acidic protein (GFAP), myelin basic protein (MBP), cyclin D3, p53 and p-AKT. Briefly, at the end of cultivation period cells were fixed in 4% paraformaldehyde, endogenous peroxydase was quenched with 1% H2O2 in PBS containing 0.1% Triton X-100 (PBST), and unspecific binding of antibodies blocked with PBST solution containing 10% FCS. […] The absorbance at 450 nm was measured in an automated microplate reader 15 min after incubation with peroxydase substrate TMB and subsequently to addition of 0.1 M HCl. To facilitate comparison between treatments, the obtained absorbances were corrected for the cell number that was determined by crystal violet staining, as described in the original protocol.
# The detection of expression of cyclin D3 and p53 expression was performed by the immunocytochemical procedure as previously described (Mijatovic et al, 2005). The cells were cultivated in glass chamber-slides (3×10^4 cells/well) and cyclin D3 and p53 expression were detected with specific antibodies against cyclin D3 (1:1000, Santa Cruz Biotechnology, Santa Cruz, Calif.) and p53 (1:500, Santa Cruz Biotechnology, Santa Cruz, Calif.). […]
# C6 cells [2] = test: Cell proliferation by CFSE staining, C6; assay type: cell-based, rat; details: 18.8 μM, 48 h, about 90% of control cells divided
# Procedure: Rate of cell proliferation was verified by flow cytometric analysis of cells labelled with CFSE (Kang et al. 2005). CFSE dye is stable in cytoplasm more than 15 generations and the intensity of fluorescence decline after each division. Briefly, detached cells were stained with 1.5 μM CFSE for the 15 min at 37° C., washed 2 times, seeded in 6-well plates at 2×10^5 cells/well and then exposed to drugs. After 24 and 48 h of cultivation cells were trypsinized and washed 2 times. Finally, the cells were resuspended in PBS and analyzed by flow cytometry. Green fluorescence emission was measured with a FACSCalibur (BD, Heidelberg, Germany) and analyzed using CellQuest software.
# FIG. 4. […] Results are calculated as indicated in materials and methods and presented as mean±SD from representative of three independent experiment (*p <0.05). […] After 24 h of cultivation without or with drugs, cells were stained with AO orange (B) or PI (C) and analyzed by flow cytometry. The data are presented as mean±SD from three independent experiments. *p<0.05, refers to untreated cultures. […] Cells were incubated with 18.8 μM of Sag or Saq-NO2 for 24 h. After that, the drugs were either removed or not from the cells and incubated for additional 24 h. Cell viability was determined by CV test after 24 and 48 h of incubation (right panels). […]
smiles,measurement,setting,value
"CC(C)(C)NC(=O)[C@@H]1C[C@@H]2CCCC[C@@H]2CN1C[C@@H](O[N+](=O)[O-])[C@H](Cc1ccccc1)NC(=O)[C@H](CC(N)=O)NC(=O)c1ccc2ccccc2n1 [Saq-NO2, nitric ester of Saquinavir]",MBP expression,B16 cells,mild elevation
same,cyclin D3 expression,C6 cells [1],not considerably changed
same,p53 expression,C6 cells [1],much higher extent than Saq
same,cells able to proliferate (divided),C6 cells [2],less than 10%
